Counter-ions that a name gives are not always drawn.
What was measured:
CDK2/Cyclin A = CDK2/Cyclin A (Homo sapiens, UniProt P24941); test: Inhibition of CDK2/Cyclin A Retinoblastoma Kinase Activity; assay type: biochemical; conditions: at 0.03 μM
How it was run: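 Baculovirus-expressed CDK2 complexed with proteolyzed cyclin A (10 or 19 nM), Rb fragment substrate, 25 μM [32P/33P]ATP, HEPES pH 7.4, 30 °C for 60 or 75 min under initial-rate conditions. Filter capture and phosphorimager readout; apparent Ki fitted to competitive or tight-binding competitive inhibition.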

[1] = target: human CDK4 and genetically truncated (1-264) cyclin D3 (Homo sapiens, UniProt P11802); test: Inhibition of CDK4/Cyclin D Retinoblastoma Kinase Activity; assay type: biochemical; conditions: at 0.03 μM
How it was run: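 Human CDK4/truncated cyclin D3 (1-264) complex from baculovirus-infected insect cells, 5 nM, phosphorylating Rb fragment (residues 386-928, His-tagged) with 25 μM [32/33P]ATP in HEPES pH 7.4, MgCl2, 2% DMSO at 30° C. for 20 min (60 min for tight binders). Filter-captured radioactivity by phosphorimager; apparent Ki from competitive or tight-binding fits.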

HCT-116 cell line = test: Inhibition of cell growth, tetrazolium salt (MTT) assay; assay type: cell-based; conditions: HCT-116 cells
How it was run: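 HCT-116 cells in McCoy's 5A medium received compound 4 h after plating (0.5% v/v DMSO) and were incubated three to five days at 37° C, 5% CO2. MTT (0.2 mg/mL final) then added for 4 h; DMSO-solubilized formazan read at 540 nm against 0.5% DMSO-treated controls.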

human CDK4 and genetically truncated (1-264) cyclin D3, sequence (P11802 whole entry, the tested form may be a part): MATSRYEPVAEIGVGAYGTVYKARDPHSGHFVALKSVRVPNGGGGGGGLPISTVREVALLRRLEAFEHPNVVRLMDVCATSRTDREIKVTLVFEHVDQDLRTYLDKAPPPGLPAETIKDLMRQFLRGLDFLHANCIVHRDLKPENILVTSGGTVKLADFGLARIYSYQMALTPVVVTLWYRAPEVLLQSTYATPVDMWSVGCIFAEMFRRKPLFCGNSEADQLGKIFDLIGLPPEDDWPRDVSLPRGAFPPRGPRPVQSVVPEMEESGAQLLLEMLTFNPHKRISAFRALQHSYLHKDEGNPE
human CDK4 and genetically truncated (1-264) cyclin D3, sequence (P30281 1-264 partner): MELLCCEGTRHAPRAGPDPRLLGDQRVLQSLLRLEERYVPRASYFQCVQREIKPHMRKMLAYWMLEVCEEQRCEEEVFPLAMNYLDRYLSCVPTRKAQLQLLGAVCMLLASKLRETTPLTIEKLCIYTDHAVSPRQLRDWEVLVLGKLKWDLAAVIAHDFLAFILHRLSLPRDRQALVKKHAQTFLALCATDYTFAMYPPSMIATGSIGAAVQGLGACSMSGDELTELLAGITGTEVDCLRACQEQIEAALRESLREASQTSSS

SMILES | melting point | CDK2 % Inhibition at 0.03 μM (CDK2/Cyclin A) | CDK4 % Inhibition at 0.03 μM [1] | HCT-116 % Inhibition at 0.1 μM (HCT-116 cell line) | HCT-116 5 Inhibition at 0.25 μM (HCT-116 cell line)
Nc1nc(NC2CCN(C(=O)c3ccc(F)cc3)CC2)sc1C(=O)c1c(F)cccc1F [Example R143] |  | 30% | 59% | 0% | 40
COc1cc(Cl)ccc1C(=O)N1CCC(Nc2nc(N)c(C(=O)c3c(F)cccc3F)s2)CC1 [Example R145] |  | 45% | 53% | 0% | 38
CC(=O)Nc1ccc(C(=O)N2CCC(Nc3nc(N)c(C(=O)c4c(F)cccc4F)s3)CC2)cc1 [Example R146] |  | 74% | 83% | 0% | 10
CNc1ccc(C(=O)N2CCC(Nc3nc(N)c(C(=O)c4c(F)cccc4F)s3)CC2)cc1 [Example R147] |  | 63% | 78% | 0% | 41
COc1ccc(C(=O)N2CCC(Nc3nc(N)c(C(=O)c4c(F)cccc4F)s3)CC2)cc1 [Example R148] |  | 20% | 49% | 0% | 42
Nc1nc(NC2CCN(C(=O)c3ccc(-c4ccccc4)cc3)CC2)sc1C(=O)c1c(F)cccc1F [Example R149] |  | 28% | 51% | 11% | 43
CSc1ccc(C(=O)N2CCC(Nc3nc(N)c(C(=O)c4c(F)cccc4F)s3)CC2)cc1 [Example R150] |  | 40% | 62% | 2% | 39
Nc1nc(NC2CCN(C(=O)c3ccc(C(F)(F)F)cc3)CC2)sc1C(=O)c1c(F)cccc1F [Example R152] |  | 17% | 41% | 0% | 40
CC(C)(C)c1ccc(C(=O)N2CCC(Nc3nc(N)c(C(=O)c4c(F)cccc4F)s3)CC2)cc1 [Example R153] |  | 37% | 58% | 0% | 44
COc1cc(C(=O)N2CCC(Nc3nc(N)c(C(=O)c4c(F)cccc4F)s3)CC2)ccc1C [Example R155] |  | 45% | 67% | 0% | 67
CCCCCc1ccc(C(=O)N2CCC(Nc3nc(N)c(C(=O)c4c(F)cccc4F)s3)CC2)cc1 [Example R158] |  | 24% | 44% | 0% | 41
CC(Oc1ccccc1)C(=O)N1CCC(Nc2nc(N)c(C(=O)c3c(F)cccc3F)s2)CC1 (centres unmarked) [Example R159] |  | 14% | 36% | 0% | 46
CC(C(=O)N1CCC(Nc2nc(N)c(C(=O)c3c(F)cccc3F)s2)CC1)c1ccccc1 (centres unmarked) [Example R160] |  | 7% | 6% | 0% | 37
CCC(Oc1ccccc1)C(=O)N1CCC(Nc2nc(N)c(C(=O)c3c(F)cccc3F)s2)CC1 (centres unmarked) [Example R162] |  | 27% | 32% | 0% | 34
CCC(C(=O)N1CCC(Nc2nc(N)c(C(=O)c3c(F)cccc3F)s2)CC1)c1ccccc1 (centres unmarked) [Example R163] |  | 26% | 28% | 0% | 44
CCCC(CCC)C(=O)N1CCC(Nc2nc(N)c(C(=O)c3c(F)cccc3F)s2)CC1 [Example R166] |  | 17% | 37% | 0% | 44
CCC(=O)N1CCC(Nc2nc(N)c(C(=O)c3c(F)cccc3F)s2)CC1 [Example R172] |  | 34% | 49% | 0% | 49
Nc1nc(NC2CCN(C(=O)CCc3ccccc3)CC2)sc1C(=O)c1c(F)cccc1F [Example R174] |  | 21% | 42% | 0% | 48
COc1ccccc1CCC(=O)N1CCC(Nc2nc(N)c(C(=O)c3c(F)cccc3F)s2)CC1 [Example R175] |  | 19% | 41% | 0% | 47

Now from value to compound, other results behind:

melting point | CDK2 % Inhibition at 0.03 μM (CDK2/Cyclin A) | CDK4 % Inhibition at 0.03 μM [1] | SMILES | HCT-116 % Inhibition at 0.1 μM (HCT-116 cell line) | HCT-116 5 Inhibition at 0.25 μM (HCT-116 cell line)
117 to 120 °C |  |  | CN(C)CCCc1ccc(S(=O)(=O)N2CCC(Nc3nc(N)c(C(=O)c4c(F)cccc4F)s3)CC2)cc1 (as salt: salt) [Example I10, 1-(4-Amino-2-{1-[4-(3-dimethylamino-propyl)-benzenesulfonyl]-piperidin-4-ylamino}-thiazol-5-yl)-1-(2,6-difluoro-phenyl)-methanone D-Glucuronic Acid Salt] |  | 
 | 20% | 46% | Nc1nc(NC2CCN(C(=O)c3ccc(Cl)cc3)CC2)sc1C(=O)c1c(F)cccc1F [Example R144] | 0% | 38
 | 24% | 39% | COC(=O)c1ccc(C(=O)N2CCC(Nc3nc(N)c(C(=O)c4c(F)cccc4F)s3)CC2)cc1 [Example R151] | 0% | 43
 | 50% | 63% | Cc1ccc(C(=O)N2CCC(Nc3nc(N)c(C(=O)c4c(F)cccc4F)s3)CC2)cc1 [Example R154] | 0% | 27
 | 65% | 89% | C=Cc1ccc(C(=O)N2CCC(Nc3nc(N)c(C(=O)c4c(F)cccc4F)s3)CC2)cc1 [Example R156] | 0% | 43
 | 22% | 47% | CCc1ccc(C(=O)N2CCC(Nc3nc(N)c(C(=O)c4c(F)cccc4F)s3)CC2)cc1 [Example R157] | 0% | 42
 | 26% | 53% | CC(=Cc1ccccc1)C(=O)N1CCC(Nc2nc(N)c(C(=O)c3c(F)cccc3F)s2)CC1 [Example R161] | 0% | 34
 | 9% | 19% | CCC(CC)C(=O)N1CCC(Nc2nc(N)c(C(=O)c3c(F)cccc3F)s2)CC1 [Example R164] | 0% | 41
 | 3% | 22% | CCCC(C)C(=O)N1CCC(Nc2nc(N)c(C(=O)c3c(F)cccc3F)s2)CC1 (centres unmarked) [Example R165] | 0% | 42
 | −2% | 11% | CCCCC(C)C(=O)N1CCC(Nc2nc(N)c(C(=O)c3c(F)cccc3F)s2)CC1 (centres unmarked) [Example R167] | 0% | 42
 | 6% | −4% | CCCCC(CC)C(=O)N1CCC(Nc2nc(N)c(C(=O)c3c(F)cccc3F)s2)CC1 (centres unmarked) [Example R168] | 0% | 42
 | 22% | 40% | Nc1nc(NC2CCN(C(=O)CNc3ccc(O)cc3)CC2)sc1C(=O)c1c(F)cccc1F [Example R169] | 0% | 39
 | 21% | 22% | CC(C)=CCCC(C)CC(=O)N1CCC(Nc2nc(N)c(C(=O)c3c(F)cccc3F)s2)CC1 (centres unmarked) [Example R170] | 0% | 23
 | 23% | 39% | CCC(C)CC(=O)N1CCC(Nc2nc(N)c(C(=O)c3c(F)cccc3F)s2)CC1 (centres unmarked) [Example R171] | 0% | 46
 | 23% | 43% | Nc1nc(NC2CCN(C(=O)CCOc3ccccc3)CC2)sc1C(=O)c1c(F)cccc1F [Example R173] | 0% | 43
 | 2% | 4% | COc1ccc(CCC(=O)N2CCC(Nc3nc(N)c(C(=O)c4c(F)cccc4F)s3)CC2)cc1 [Example R176] | 1% | 43
